Measured values as given in patent US8802235B2, “Drug and imaging agent delivery compositions and methods” (priority 2012, dated 2014).
Read-outs that look alike come from different tables or passages of the source. One block for each compound: values may come before it.

Key:
B16F10 cells = experiment: cells; type: cell-based, murine; conditions: for IC50: read-out: IC50s B16F10
Description: (§1) B16F10 (lymphatically metastatic murine melanoma), MDA-MB-231 (human breast cancer), and HUVEC (normal human endothelial) cell lines, were maintained in Dulbecco's modified Eagle's medium (DMEM) supplemented with 1% L-Glutamine and 10% bovine growth serum in 5% CO2 atmosphere. The HER2-expressing murine breast cancer cell line, 4T1.2 Neu was maintained in DMEM supplemented with 1% L-Glutamine, 10% bovine growth serum, and 500 μg/mL of G418 (geneticin) in 5% CO2 atmosphere. The lymphatically metastatic human melanoma cell line, A2058 was maintained in low sodium bicarbonate (1.5 g/L) containing DMEM supplemented with 1% L-Glutamine, 10% bovine growth serum in 5% CO2 atmosphere.
(§2) Prior to cell growth inhibition studies, cells were trypsinized and seeded at 3000 cells/well into 96-well tissue culture plates. After 24 hours, geldanamycin, 17-DMAG, 17-AAG, 17-HEAG, Star-GA (GA basis), or melphalan hydrochloride dilutions in 1×PBS (Fisher BioReagents, pH 7.4) with up to 3% DMSO (final well concentration, for the highest drug concentration) were added to the B16F10, A2058, HUVEC, 4T1.2 Neu, or MDA-MB-231 cells (n=8 or 12, 10 μL/well, 8 or 6 concentrations 10^−10 to 10^−3 M, respectively). Solutions of 10% trichloracetic acid was used as a negative control, media was used as a positive control, and 3% DMSO was used as an additional control (n=8 or 12, 10 μL/well). At 72 h post addition, 10 μL of resazurin blue in PBS was added (5 μM final concentration) to each well. After 3 hours, well fluorescence was measured (λex/λem=560/590 nm) (SpectraMax Gemini, Molecular Devices). IC50s were determined using the nonlinear regression curve fit of a one-site competition (GraphPad Prism 10).

A2058 cells = experiment: In vitro cytotoxicity (resazurin blue), A2058; type: cell-based, human; conditions: read-out: IC50s A2058
Description: as §1, §2

HUVEC cells = experiment: In vitro cytotoxicity (resazurin blue), HUVEC; type: cell-based, human
Description: as §1, §2

B16F10 tumors = type: in vivo; conditions: for B16F10 tumor response: melphalan i.v. 5 mg/kg, 17-DMAG i.v. 15 mg/kg, Star-GA s.c. 15 mg/kg DMAG equivalent, polymer s.c. equivalent dose, vs non-treated
Description: . The tumors were measured and recorded, the volumes were calculated using the equation: Tumor Volume (mm^3)=0.52×(width)^2×length. When the B16F10 tumors reached 200-350 mm^3 (ca. Days 6-9), mice were randomly divided into five treatment groups: melphalan (i.v., n=5), 17-DMAG (i.v., n=4), star polymer (s.c., n=6), Star-GA (s.c., n=7), or no treatment (n=4) (FIG. 30).
Mice in the melphalan treatment group were injected once with melphalan (5 mg/kg) intravenously via the tail veil under isoflurane anesthesia. The formulation used to treat mice bearing B16F10 tumors was modified slightly from the product insert for ALKERAN (melphalan hydrochloride) for injections into humans. Melphalan was dissolved in concentrated hydrochloric acid (35-38%) to give a 15 mg/mL solution. The melphalan solution was then aliquoted into vials to give 0.75 mg melphalan/vial, and was dried using a speedvac concentrator (Labconoco) for 1.5 hours at 35° C. followed by 1 hour at ambient temperature. The vials containing dry melphalan hydrochloride were sealed and placed at −20° C. until further use. The reconstituted solution was prepared by first pre-sterilizing propylene glycol, 95% ethanol, and 0.02 g/mL sodium citrate solution, using a sterile syringe fitted with a 0.22 μm sterile filter (Millex GP PES membrane sterile filter, Millipore) into a sterile falcon tube. Then the reconstituted solution was prepared by combining 6 mL sterile propylene glycol, 0.52 mL sterile ethanol (95%), and 3.48 mL sodium citrate solution, and the solution was mixed well and filtered a second time with at 0.22 μm sterile filter. Immediately prior to injection, the 150 μL of the sterile reconstituted solution was rapidly added to the melphalan hydrochloride, the vial was immediately shaken vigorously until dissolved, followed by the rapid addition of 150 μL of sterile saline yielding a 2.5 mg/mL melphalan solution. The melphalan was dosed within 10 to 15 minutes after reconstitution to minimize degradation.
17-DMAG was dissolved in sterile DMSO and administered i.v. via the tail vein at a dose of 15 mg/kg (MTD). […]

4T1.2 Neu cells = experiment: In vitro cytotoxicity (resazurin blue), 4T1.2 Neu; type: cell-based, murine; conditions: 72 h, Star-GA on GA basis, read-out: IC50s 4T1.2 Neu
Description: as §1, §2

MDA-MB-231 cells = experiment: In vitro cytotoxicity (resazurin blue), MDA-MB-231; type: cell-based, human; conditions: 72 h, Star-GA on GA basis, read-out: IC50s MDA-MB-231
Description: as §1
Prior to cell growth inhibition studies, cells were trypsinized and seeded at 3000 cells/well into 96-well tissue culture plates. […] After 3 hours, well fluorescence was measured (λex/λem=560/590 nm) (SpectraMax Gemini, Molecular Devices). IC50s were determined using the nonlinear regression curve fit of a one-site competition (GraphPad Prism 10).

4T1.2 Neu tumors = experiment: Anticancer efficacy in 4T1.2 Neu tumor bearing mice; type: in vivo; conditions: 17-DMAG i.v. 10 mg/kg, Star-GA s.c. 45 mg/kg
Description: During cell preparation of the 4T1.2 Neu cells for implantation, G418 free media was used. Prior to tumor implantation, the hair surrounding the right upper portion of the mouse's chest was removed with depilatory cream. […].
Seven week old (18-22 g) female Balb/c mice purchased from Jackson Laboratory (Bar Harbor, Me.) were used in this study. On Day 7, when tumors reached 100-250 mm^3, mice were randomly divided into four treatment groups, consisting of no treatment (n=7), 60% […] (n=5), 17-DMAG (n=7), and Star-GA (n=8). The 17-DMAG was dosed at 10 mg/kg i.v. as a 1:1 sterile DMSO:PBS solution. Star-GA was dosed at 45 mg/kg (17-HEAG basis, 15% loading, 300 mg/kg Star-GA conjugate), in sterile 35% DMSO and 65% PBS, which was divided into two peritumoral injections on either side of the mammary tumor. Finally, the 60% […] was dosed at an equivalent star polymer concentration used for the 45 mg/kg Star-GA (255 mg/kg 60% […]), which was divided into two peritumoral injections onto either side of the mammary tumor. Tumor volumes were monitored and reported every two days (FIG. 33).
To minimize the occurrence of necrotic tails upon dosing 17-DMAG, as observed in the B16F10 in vivo study described in the previous section, 17-DMAG was dosed at 10 mg/kg i.v. in a 1:1 sterile DMSO:PBS solution rather than 15 mg/kg in 100% DMSO.

[1] = 17-DMAG i.v.; cited from earlier work
[2] = Metastatic analysis of axillary lymph nodes by nodal volume and rtPCR; conditions: one mouse
Description: The metastatic state of the 4T1.2 Neu tumor model post treatment was assessed by axillary lymph node volume and the nodal HER 2 expression.
The total RNAs from the frozen lymph node samples were extracted using TriZol reagent (Invitrogen). The first-strand cDNA was synthesized using the Omniscript-RT Kit (QIAGEN, Valencia, Calif.). Primers for the Erbb2 (HER2 RT^2 qpCR primer assay, proprietary primer sequence, QIAGEN) and 18S housekeeping gene (forward: 5′-[sequence]-3′ reverse: 5′-[sequence]-3′) (IDT Inc, Coralville, Iowa) were used. The real-time PCR, in a reaction volume of 25 μL, was performed using the SYBR Green Supermix kit with the Bio-Rad iQ5 system (Hercules, Calif.).
During the lymph node harvesting, gross visualization of the organs was made to identify any obvious signs of metastases, growths, or toxicities associated with any of the treatments.

[3] = cited from earlier work
MDA-1986 cells [4] = experiment: Cell growth inhibition (resazurin blue), MDA-1986; type: cell-based, human; conditions: 72 hours
Description: (§3) Cell growth inhibition was determined in 96-well plates (3,000 cells/well in 100 μL, 12 replicates/sample) using highly invasive human breast cancer cells, MDA-MB-231, non-metastatic human breast cancer cells, MDA-MB-468, and highly invasive human head and neck squamous cell cancer cells positive for epithelia growth factor receptor, MDA-1986. Drug or conjugate solutions were applied after 24 hours, and 72 hours post-addition, resazurin blue in 10 μL of PBS was applied to each well (final concentration 5 μM).

MDA-MB-468 cells = experiment: Cell growth inhibition (resazurin blue), MDA-MB-468; type: cell-based, human; conditions: 72 hours
Description: as §3

[5] = test system: MDA-1986 human head and neck squamous cell carcinoma; experiment: Head and neck tumor model, efficacy of sugar-NO1; type: in vivo, female nude mice
MDA-1986 cells [6] = experiment: Nitric oxide release (Griess) in cell culture with MDA-1986 cells; type: cell-based, human
Description: The fluorescence intensity was measured between 520 and 550 nm using a fluorescence microplate reader.
The concentration of nitrite, the stable breakdown product of gaseous nitric oxide, was measured using Griess assay as an indirect measurement of nitric oxide concentration in cell culture media. The assay is based on the reaction between sulfanilamide, N-1-napthyethylenediamine dihydrochloride and nitrite, under acidic conditions to produce a […] azo compound.

[7] = 72 h; Star-GA on GA basis; read-out: IC50s HUVEC

Compound: N[C@@H](Cc1ccc(N(CCCl)CCCl)cc1)C(=O)O [melphalan]
IC50 (B16F10 cells; Mus musculus, B16-F10, 72 h): 103000 nM
IC50 (A2058 cells; Homo sapiens, A2058, 72 h): 30000 nM
IC50 (HUVEC cells; Homo sapiens, HUVEC, 72 h, read-out: IC50s HUVEC): 209000 nM
B16F10 tumor response (B16F10 tumors): complete response to treatment

Compound: CO[C@H]1/C=C\C=C(/C)C(=O)NC2=CC(=O)C(NCCN(C)C)=C(C[C@@H](C)C[C@H](OC)[C@H](O)[C@@H](C)/C=C(\C)[C@@H]1OC(N)=O)C2=O [17-DMAG, 17-dimethylaminoethylamino-17-demethoxygeldanamycin]
IC50 (B16F10 cells; 72 h, Star-GA on GA basis): 250 nM
increase in in vitro toxicity in comparison to melphalan (B16F10 cells; B16F10 cell line): 400 fold
IC50 (A2058 cells; 72 h, Star-GA on GA basis): 44 nM
IC50 (HUVEC cells; [7]): 29000 nM
IC50 (4T1.2 Neu cells): 296 nM
IC50 (MDA-MB-231 cells): 189 nM
physical signs of toxicities (B16F10 tumors; B16F10 study doses): signs of tail necrosis
B16F10 tumor response (B16F10 tumors): did not exhibit statistically significant tumor growth inhibition
survival (4T1.2 Neu tumors): neither 17-DMAG nor star-GA treatments exhibited an increase in survival
4T1.2 Neu tumor response compared to non-treated mice (4T1.2 Neu tumors; polymer 255 mg/kg): no statistical significances
MTD [1]: 15 mg/kg
gross visualization of the organs [2]: appeared to have liver metastases

Compound: [N]=O [nitric oxide]
half-life in vivo [3]: about 5 seconds

Now from value to compound, other results behind:

IC50 (B16F10 cells; Mus musculus, B16-F10, 72 h, Star-GA on GA basis): 36 nM
Compound: COC1=C2C[C@@H](C)C[C@H](OC)[C@H](O)[C@@H](C)/C=C(\C)[C@H](OC(N)=O)[C@@H](OC)/C=C\C=C(/C)C(=O)NC(=CC1=O)C2=O [geldanamycin]
IC50 (A2058 cells; Homo sapiens, A2058, 72 h, Star-GA on GA basis): 44 nM
IC50 (HUVEC cells; Homo sapiens, HUVEC, 72 h; read-out: IC50s HUVEC): 440 nM
IC50 (4T1.2 Neu cells; Mus musculus, 4T1.2): 260 nM
IC50 (MDA-MB-231 cells; Homo sapiens, MDA-MB-231): 963 nM

IC50 (MDA-MB-468 cells): 42000 ± 4000 nM
Compound: CCOC(=O)N1CCN(/[N+]([O-])=N/Oc2ccc([N+](=O)[O-])cc2[N+](=O)[O-])CC1 [JS-K, O^2-(2,4-Dinitrophenyl) 1-[(4-ethoxycarbonyl)piperazin-1-yl]diazen-1ium-1,2-diolate]
IC50 (MDA-1986 cells [4]): 16000 ± 2000 nM
disease condition (modified RECIST), animal No. 1 ([5]; 10 mg/kg on NO prodrug basis): PD (PD = Progressive Disease (>30% tumor growth))
disease condition (modified RECIST), animal No. 2 ([5]; 10 mg/kg on NO prodrug basis): Necrosis
disease condition (modified RECIST), animal No. 3 ([5]; 10 mg/kg on NO prodrug basis): PD (PD = Progressive Disease (>30% tumor growth))
disease condition (modified RECIST), animal No. 4 ([5]; 10 mg/kg on NO prodrug basis): PD (PD = Progressive Disease (>30% tumor growth))
disease condition (modified RECIST), animal No. 5 ([5]; 10 mg/kg on NO prodrug basis): Necrosis
disease condition (modified RECIST), animal No. 6 ([5]; 10 mg/kg on NO prodrug basis): PD (PD = Progressive Disease (>30% tumor growth))
tumor size ([5]; JS-K i.v. six weeks after tumor cell implantation, sugar-NO1 s.c. same time frame, 10 mg/kg): approximately 1000 mm^3
animals euthanized ([5]; within 7 weeks, tumor size exceeding 1000 mm^3 or necrosis of injection site on the tail): 100%

IC50 (MDA-MB-468 cells): 27000 ± 3000 nM
Release half-life (MDA-1986 cells [6]): 9.0 h
Compound: CC1CN([N+]([O-])=NOc2ccc([N+](=O)[O-])cc2[N+](=O)[O-])CCN1CCO (stereo not drawn) [NO2, O^2-(2,4-Dinitrophenyl) 1-[[4-(2-hydroxy)ethyl]-3-methylpiperazin-1-yl]diazen-1-ium-1,2-diolate]
IC50 (MDA-1986 cells [4]): 57000 ± 6000 nM

IC50 (B16F10 cells; 72 h, Star-GA on GA basis): 825 nM
Compound: C=CCNC1=C2C[C@@H](C)C[C@H](OC)[C@H](O)[C@@H](C)/C=C(\C)[C@H](OC(N)=O)[C@@H](OC)/C=C\C=C(/C)C(=O)NC(=CC1=O)C2=O [17-AAG, 17-allylamino-17-demethoxygeldanamycin]
IC50 (A2058 cells; 72 h, Star-GA on GA basis): 53 nM
IC50 (HUVEC cells; [7]): 64000 nM
IC50 (4T1.2 Neu cells): 315 nM
